# Patent US5616615A, “Enaminone esters” (priority 1995, dated 1997)
# Where two headings read alike, the source gives them in different places.
# Tests used:
# [1] = test system: Maximal electroshock seizures; experiment: Phase VI oral MES test, rats; format: in vivo; conditions: Rattus norvegicus, oral, 50 mg/kg, read-out: MES, animals protected/tested (converted)
# Excerpt: (§1) Maximal electroshock seizures are elicited with a 60-cycle alternating current of 50 mA intensity (5-7 times that necessary to elicit minimal electroshock seizures) delivered via corneal electrodes for 0.2 seconds. A drop of 0.9% saline is instilled in the eye prior to application of the electrodes in order to […].
# (§2) This oral screen is designated as phase VI.
# [2] = in vivo; conditions: rat, po, 50 mg/kg
# Excerpt: as §2
# [3] = test system: Maximal electroshock seizures; experiment: MES maximal electroshock seizure test, mice ip; format: in vivo; conditions: for responders at 10 mg/kg / responders at 100 mg/kg / responders at 300 mg/kg: Mus musculus, ip; for responders at 10 mg/kg: mice ip; for responders at 10 mg/kg / responders at 100 mg/kg: read-out: MES, animals protected/tested (converted); for responders at 300 mg/kg: read-out: MES, animals protected/tested; for anti-MES protecting ability: Phase I
# Procedure: Three tests were performed:
# 1. MES--Electroshock Seizure Test
# as §1
# [4] = test system: seizures; experiment: Anticonvulsant evaluation (ASP phase I / overall); format: in vivo, mice; conditions: Mus musculus, ip; Phase I; read-out: ASP Classification
# Procedure: The first phase of the ADD Program involved performing tests on male Carworth Farms #1 mice. […] Three tests were performed:
# as §1
# The animal is observed for 30 minutes.
# [5] = test system: Subcutaneous Pentylenetetrazol seizure; experiment: sc Met subcutaneous pentylenetetrazol (Metrazol) seizure test, mice; format: in vivo; conditions: Mus musculus, sc, read-out: scMet, animals protected/tested (converted)
Compound,"responders at 50 mg/kg ([1]; 0.5 h, 0.50 h)",responders at 50 mg/kg ([1]; 0.25 h),responders at 50 mg/kg ([1]; 1.00 h),responders at 50 mg/kg ([1]; 2.00 h),responders at 50 mg/kg ([1]; 4.00 h),"Tox, animals toxic/tested [2]","responders at 10 mg/kg ([3]; 0.25 h, 0.25 h)","responders at 100 mg/kg ([3]; 0.5 h, 30 min)","responders at 300 mg/kg ([3]; 0.5 h, 30 min)","responders at 10 mg/kg ([3]; 0.5 h, 0.50 h)","responders at 10 mg/kg ([3]; 1 h, 1.00 h)","responders at 10 mg/kg ([3]; 2 h, 2.00 h)","responders at 100 mg/kg ([3]; 4 h, 4 h)","responders at 300 mg/kg ([3]; 4 h, 4 h)","responders at 10 mg/kg ([3]; 4 h, 4.00 h)",minimal effective dose [4],"responders at 100 mg/kg ([5]; 0.5 h, 30 min)","responders at 300 mg/kg ([5]; 0.5 h, 30 min)","responders at 100 mg/kg ([5]; 4 h, 4 h)","responders at 300 mg/kg ([5]; 4 h, 4 h)",also measured
CCOC(=O)C1C(=O)C=C(Nc2ccc(C(C)(C)C)cc2)CC1C (stereo not drawn) [Compound 130],25%,25%,50%,75%,25%,0/4,100%,33.3%,100%,75%,50%,0%,0%,0%,0%,< 100 mg/kg,0%,0%,0%,0%,anti-MES protecting ability [3]: showed anti-MES protecting ability
CC1(C)CC(=O)C=C(Nc2ccc([N+](=O)[O-])cc2)C1 [Compound 138],0%,0%,0%,50%,0%,0/4,–,33.3%,100%,–,–,–,0%,0%,–,< 100 mg/kg,0%,0%,0%,0%,–
O=C1C=C(Nc2ccc(Cl)cc2)CCC1 [Compound 147],100%,75%,50%,25%,25%,0/4,–,100%,100%,–,–,–,0%,100%,–,< 100 mg/kg,0%,0%,0%,0%,–
CCOC(=O)C1C(=O)C=C(Nc2ccc(C)cc2)CC1C (stereo not drawn) [Compound 125],100%,100%,100%,100%,100%,0/4,25%,33.3%,100%,0%,25%,0%,0%,0%,0%,< 100 mg/kg,0%,0%,0%,0%,anti-MES protecting ability [3]: showed anti-MES protecting ability
COC(=O)C1C(=O)C=C(NCCc2ccccc2)CC1C (stereo not drawn) [Compound 109],50%,100%,50%,25%,25%,0/4,–,66.7%,100%,–,–,–,0%,0%,–,< 100 mg/kg,0%,0%,0%,0%,–
CC1(C)CC(=O)C=C(Nc2ccc(C(F)(F)F)cc2)C1 [Compound 144],0%,0%,75%,25%,100%,0/4,–,0%,0%,–,–,–,66.7%,0%,–,< 100 mg/kg,0%,100%,0%,0%,–
